Biological target: T1, PPARγ ligand-binding domain (PPARγ LBD) (Homo sapiens, UniProt P37231)
T1 construct: gene PPARG
T1 sequence (P37231 238-505 limits assumed): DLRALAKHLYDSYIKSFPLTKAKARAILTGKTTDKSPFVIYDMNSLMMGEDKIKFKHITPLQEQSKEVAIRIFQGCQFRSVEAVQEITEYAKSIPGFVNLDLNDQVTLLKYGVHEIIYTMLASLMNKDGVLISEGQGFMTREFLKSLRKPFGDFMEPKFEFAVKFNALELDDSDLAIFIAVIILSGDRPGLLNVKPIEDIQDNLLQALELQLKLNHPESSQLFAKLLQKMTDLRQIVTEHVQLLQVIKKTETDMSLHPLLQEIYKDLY
Assay: fluorescence polarization competition (PolarScreen PPARγ Competitor Assay Green)
Settings: displacement of fluorescent PPARγ ligand; ex 485 nm, em 535 nm; unreliable

**Q.** `Cc1ccc(C2(CC(=O)O)CCOC(C)(C)C2)cc1` (stereo not drawn) [C2, ZINC00201868] was tested. Which IC50 did it give?
**A.** > 8000 µM

**Q.** With `COc1ccc(C(O)=C2C(=O)C(=O)N(Cc3cccnc3)C2c2ccc(O)cc2)c(C)c1` (stereo not drawn) [C3, ZINC00914339] as the molecule, how does the IC50 read?
**A.** > 8000 µM

**Q.** `Cc1oc2c(C)c3oc(=O)c(CC(=O)N4CCC(C(=O)O)CC4)c(C)c3cc2c1C` [C6, ZINC02156886] was tested. Which IC50 did it give?
**A.** > 8000 µM

Same assay, conditions: read-out: Binding affinityIC50

**Q.** How did the IC50 turn out when `C=C(C)COc1ccc2oc(-c3ccccc3)c(C(=O)O)c2c1` [C1, ZINC00083676] was run?
**A.** 12.4 µM

**Q.** How did the IC50 turn out when `CC(C)C(NC(=O)C(Cc1ccccc1)n1c(=O)[nH]c2ccccc2c1=O)C(=O)O` (stereo not drawn) [C5, ZINC02128851] was run?
**A.** 1000 µM

**Q.** With `Cc1ccc(C(c2ccc(C)o2)c2ccccc2C(=O)O)o1` [C7, ZINC03846929] as the molecule, how does the IC50 read?
**A.** 252 µM

**Q.** `Cc1cc(C)c2c(O)nn(C3CCOC(C)(C)C3)c2n1` (stereo not drawn) [C8, ZINC04040746] was tested. Which IC50 did it give?
**A.** 460 µM

**Q.** For `CC1(C)SC2c3ccccc3C(=O)N2C1C(=O)NC(Cc1ccccc1)C(=O)O` (stereo not drawn) [C9, ZINC04085288], which IC50 is on record?
**A.** 585 µM

**Q.** `CC(C)C[C@H](NC(=O)OCC1c2ccccc2-c2ccccc21)C(=O)O` [FMOC, reference compound] was tested. Which IC50 did it give?
**A.** 18.5 µM

Source: PMC3511273, “Identification of PPARgamma Partial Agonists of Natural Origin (I): Development of a Virtual Screening Procedure and In Vitro Validation” (PLoS ONE, 2012)
